Active and inactive are the calls of the source. The calls are words filed in the database; no cut-off is given here.
Key:
[1] = Cell cycle arrest in human PC3M cells assessed as reduction in S phase at 2.5 to 20 uM after 24 hrs by propidium iodide staining based flow cytometry; assay type: functional; conditions: PC-3M
PC-3M [2] = test: Antimigratory activity against human PC3M cells after 12 hrs by crystal violet staining based transwell migration assay; assay type: functional, cell-based
[3] = Antiproliferative activity against human ES2 cells after 48 hrs by SRB assay; assay type: functional, cell-based; conditions: ES-2, 48 h
PC-3M [4] = test: Induction of apoptosis in human PC3M cells assessed as early apoptotic cells at 2.5 uM after 48 hrs by annexin V-FITC/propidium iodide staining based flow cytometry (reference value: 31.94%); assay type: functional
[5] = Selectivity index, ratio of IC50 for HAF cells to IC50 for human ES2 cells; assay type: functional
[6] = Antiproliferative activity against HAF cells after 48 hrs by SRB assay; assay type: cell-based; conditions: Homo sapiens
PC-3M [7] = test: Induction of apoptosis in human PC3M cells assessed as early apoptotic cells at 20 uM after 48 hrs by annexin V-FITC/propidium iodide staining based flow cytometry (reference value: 31.94%); assay type: functional
[8] = Antimigratory activity against human PC3M cells at 20 uM after 12 hrs by crystal violet staining based transwell migration assay; assay type: functional, PC-3M
[9] = Cell cycle arrest in human PC3M cells assessed as accumulation at G1 phase at 10 uM after 24 hrs by propidium iodide staining based flow cytometry (reference value: 56.82%); assay type: functional; conditions: PC-3M
[10] = Antiproliferative activity against human PC3M cells after 48 hrs by SRB assay; assay type: functional, cell-based; conditions: PC-3M
PC-3M [11] = test: Inhibition of colony formation in human PC3M cells after 7 days by crystal violet staining based assay; assay type: functional, cell-based
PC-3M [12] = test: Induction of apoptosis in human PC3M cells assessed as late apoptotic cells at 5 uM after 24 hrs by annexin V-FITC/propidium iodide staining based flow cytometry (reference value: 0.97%); assay type: functional
PC-3M [13] = test: Induction of apoptosis in human PC3M cells assessed as early apoptotic cells at 5 uM after 48 hrs by annexin V-FITC/propidium iodide staining based flow cytometry (reference value: 31.94%); assay type: functional
PC-3M [14] = test: Induction of apoptosis in human PC3M cells assessed as early apoptotic cells at 2.5 uM after 24 hrs by annexin V-FITC/propidium iodide staining based flow cytometry (reference value: 15.20%); assay type: functional
PC-3M [15] = test: Induction of apoptosis in human PC3M cells assessed as late apoptotic cells at 20 uM after 48 hrs by annexin V-FITC/propidium iodide staining based flow cytometry (reference value: 0.32%); assay type: functional
[16] = Cell cycle arrest in human PC3M cells assessed as accumulation at G1 phase after 24 hrs by propidium iodide staining based flow cytometry; assay type: functional; conditions: PC-3M
PC-3M [17] = test: Induction of apoptosis in human PC3M cells assessed as early apoptotic cells at 10 uM after 48 hrs by annexin V-FITC/propidium iodide staining based flow cytometry (reference value: 31.94%); assay type: functional
PC-3M [18] = test: Induction of apoptosis in human PC3M cells assessed as early apoptotic cells at 10 uM after 24 hrs by annexin V-FITC/propidium iodide staining based flow cytometry (reference value: 15.20%); assay type: functional
[19] = Antiproliferative activity against human HT-29 cells after 48 hrs by SRB assay; assay type: functional, cell-based; conditions: HT-29, 48 h
PC-3M [20] = test: Induction of apoptosis in human PC3M cells assessed as early apoptotic cells at 20 uM after 24 hrs by annexin V-FITC/propidium iodide staining based flow cytometry (reference value: 15.20%); assay type: functional
PC-3M [21] = test: Induction of apoptosis in human PC3M cells assessed as late apoptotic cells at 10 uM after 48 hrs by annexin V-FITC/propidium iodide staining based flow cytometry (reference value: 0.32%); assay type: functional
PC-3M [22] = test: Induction of apoptosis in human PC3M cells assessed as early apoptotic cells at 5 uM after 24 hrs by annexin V-FITC/propidium iodide staining based flow cytometry (reference value: 15.20%); assay type: functional
PC-3M [23] = test: Induction of apoptosis in human PC3M cells assessed as late apoptotic cells at 2.5 uM after 24 hrs by annexin V-FITC/propidium iodide staining based flow cytometry (reference value: 0.97%); assay type: functional
PC-3M [24] = test: Inhibition of colony formation in human PC3M cells at 10 uM after 7 days by crystal violet staining based assay; assay type: functional, cell-based
[25] = Cell cycle arrest in human PC3M cells assessed as accumulation at G1 phase at 2.5 uM after 24 hrs by propidium iodide staining based flow cytometry (reference value: 56.82%); assay type: functional; conditions: PC-3M
PC-3M [26] = test: Induction of apoptosis in human PC3M cells assessed as late apoptotic cells at 10 uM after 24 hrs by annexin V-FITC/propidium iodide staining based flow cytometry (reference value: 0.97%); assay type: functional
PC-3M [27] = test: Induction of apoptosis in human PC3M cells assessed as late apoptotic cells at 20 uM after 24 hrs by annexin V-FITC/propidium iodide staining based flow cytometry (reference value: 0.97%); assay type: functional
[28] = Cell cycle arrest in human PC3M cells assessed as accumulation at G1 phase at 20 uM after 24 hrs by propidium iodide staining based flow cytometry (reference value: 56.82%); assay type: functional; conditions: PC-3M
[29] = Selectivity index, ratio of IC50 for HAF cells to IC50 for human HT-29 cells; assay type: functional
[30] = Inhibition of colony formation in human PC3M cells at 5 uM after 7 days by crystal violet staining based assay; assay type: functional; conditions: PC-3M, 168 h
PC-3M [31] = test: Induction of apoptosis in human PC3M cells assessed as late apoptotic cells at 2.5 uM after 48 hrs by annexin V-FITC/propidium iodide staining based flow cytometry (reference value: 0.32%); assay type: functional
PC-3M [32] = test: Induction of apoptosis in human PC3M cells assessed as late apoptotic cells at 5 uM after 48 hrs by annexin V-FITC/propidium iodide staining based flow cytometry (reference value: 0.32%); assay type: functional
[33] = Selectivity index, ratio of IC50 for HAF cells to IC50 for human PC3M cells; assay type: functional
[34] = Cell cycle arrest in human PC3M cells assessed as accumulation at G1 phase at 5 uM after 24 hrs by propidium iodide staining based flow cytometry (reference value: 56.82%); assay type: functional; conditions: PC-3M
[35] = Antimigratory activity against human PC3M cells at 2.5 uM after 12 hrs by crystal violet staining based transwell migration assay relative to control; assay type: functional, PC-3M

## C=C(C)C1CC[C@H]2[C@@H]3CC[C@H]([C@H](C)CCC(=O)N4CCNCC4)[C@@]3(C)CC[C@@H]2[C@@]1(C)CCC(=O)N1CCNCC1 (stereo not given in full)
[1]
  Activity: Active
PC-3M [2]
  Activity: Dose-dependent effect
[3]
  IC50: 3.86 µM
PC-3M [4]
  Activity: 30.07%
[5]
  Ratio IC50: 7.3
[6]
  IC50: 28.1 µM
PC-3M [7]
  Activity: 22.72%
[8]
  Activity: 100%
[9]
  Activity: 69%
[10]
  IC50: 1.07 µM
PC-3M [11]
  inhibition: Dose-dependent effect
PC-3M [12]
  Activity: 0.87%
PC-3M [13]
  Activity: 30.18%
PC-3M [14]
  Activity: 15.36%
PC-3M [15]
  Activity: 1.31%
[16]
  Activity: Dose-dependent effect
PC-3M [17]
  Activity: 29.52%
PC-3M [18]
  Activity: 14.66%
[19]
  IC50: 4.58 µM
PC-3M [20]
  Activity: 14.5%
PC-3M [21]
  Activity: 0.79%
PC-3M [22]
  Activity: 13.78%
PC-3M [23]
  Activity: 0.61%
PC-3M [24]
  inhibition: Active
[25]
  Activity: 58.4%
PC-3M [26]
  Activity: 0.6%
PC-3M [27]
  Activity: 0.9%
[28]
  Activity: 79%
[29]
  Ratio IC50: 6.1
[30]
  inhibition at 5 µM: 70%
PC-3M [31]
  Activity: 0.44%
PC-3M [32]
  Activity: 0.48%
[33]
  Ratio IC50: 26.3
[34]
  Activity: 66.3%
[35]
  Activity: 50%

— ChEMBL document CHEMBL3867430, “Novel 3,4-seco bile acid diamides as selective anticancer proliferation and migration agents” (Eur J Med Chem, 2016)
